Data published in article PMC2222622, “The DeoR-type transcriptional regulator SugR acts as a repressor for genes encoding the phosphoenolpyruvate:sugar phosphotransferase system (PTS) in Corynebacterium glutamicum” (BMC Molecular Biology, 2007).

Molecular target: T1, SugR (Corynebacterium glutamicum, UniProt Q8NP85)
T1 construct: gene Cgl1931; expressed in E. coli ER2566 from pTYB1 (pLGI1, 777 bp sugR without stop codon) as C-terminal intein fusion, tag self-cleaved, no extra residues
T1 sequence (Q8NP85 1-259): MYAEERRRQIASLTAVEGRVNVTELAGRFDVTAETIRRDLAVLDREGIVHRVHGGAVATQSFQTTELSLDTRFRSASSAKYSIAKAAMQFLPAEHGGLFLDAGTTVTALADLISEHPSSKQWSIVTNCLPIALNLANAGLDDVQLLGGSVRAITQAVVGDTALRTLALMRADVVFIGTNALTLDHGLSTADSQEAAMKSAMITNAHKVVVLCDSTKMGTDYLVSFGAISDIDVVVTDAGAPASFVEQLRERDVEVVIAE
Assay: EMSA, release of SugR from Cy3-labelled DNA fragment I2
Format: binding
Conditions: negative effector; 15 pmol SugR, 0.05 pmol DNA I2 (ptsI-cg2118 intergenic region), 1 mM MgCl2, pH 7.5, RT; threshold of effect, not an IC50

**Q.** For `O=P(O)(O)OC[C@H]1OC(O)[C@H](O)[C@@H](O)[C@@H]1O` (stereo partly shown) [G-6-P, glucose-6-phosphate], which “concentration needed for significant effect” value is on record?
**A.** The value was over 10 mM.
